From patent US11071731B2, “Allosteric modulators of the mu opioid receptor” (Chiromics, LLC, priority 2017, dated 2021) come the findings set out here.

Assay [1] addresses T1, mu opioid receptor (MOR) (Homo sapiens, UniProt P35372). The assay is described as follows: PathHunter β-arrestin recruitment assay, PAM mode with EC20 endomorphin-1. The following applies: for EC50: read-out: β-arr. EC50. Type of assay: cell-based. In a few lines: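 β-Arrestin recruitment to the receptor was tracked by chemiluminescent β-galactosidase activity from complementing fragments (ED on receptor, EA on β-arrestin). Per-compound outputs were EC50 and percent maximal response.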

Assay [2] deals with T1, mu opioid receptor (MOR). The assay is described as follows: Hit Hunter cAMP signaling assay (adenylyl cyclase inhibition), PAM mode with EC20 endomorphin-1. Type of assay: cell-based.
Where [3] appears, read: maximal response for β-arrestin recruitment.
Where [4] appears, read: cAMP EC50, adenylyl cyclase inhibition.
The mark [5] stands for this setting: maximal response for adenylyl cyclase inhibition.
[6] abbreviates: adenylyl cyclase inhibition, read-out: cAMP EC50.
Where [7] appears, read: maximal response, β-arrestin recruitment.
Setting [8] is: maximal response, adenylyl cyclase inhibition.

Where only a bound is given, the exact number is not on record here.

T1 sequence (P35372 whole entry, the tested form may be a part): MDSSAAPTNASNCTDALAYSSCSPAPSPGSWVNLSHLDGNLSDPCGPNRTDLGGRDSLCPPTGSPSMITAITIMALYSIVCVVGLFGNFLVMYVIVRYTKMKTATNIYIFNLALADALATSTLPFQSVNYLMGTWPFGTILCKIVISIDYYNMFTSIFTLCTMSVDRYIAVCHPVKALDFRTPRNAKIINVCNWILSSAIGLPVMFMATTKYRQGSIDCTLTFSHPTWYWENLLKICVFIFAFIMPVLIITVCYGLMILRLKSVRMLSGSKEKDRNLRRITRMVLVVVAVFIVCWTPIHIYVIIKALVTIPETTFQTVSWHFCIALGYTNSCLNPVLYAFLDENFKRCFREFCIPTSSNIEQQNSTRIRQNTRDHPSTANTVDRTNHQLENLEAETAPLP

For `Fc1ccc(C2CCCCN2Cc2cc(Cl)ccc2F)cc1` (stereo not drawn) [compound 163], the “β-arr Max. Resp.” value on mu opioid receptor (MOR) [1] (setting [3]) is “F (F represents a maximal response of > 60%)”. The EC50 is 700 to 2100 nM on mu opioid receptor (MOR) [1] (β-arrestin recruitment) and under 700 nM at mu opioid receptor (MOR) [2] (setting [4]). For the same compound, the “cAMP Max. Resp.” value at mu opioid receptor (MOR) [2] (setting [5]) was “E (E represents a maximal response of 40-60%)”.
Take `COc1cc(C2CCCCN2c2nc(Cl)ncc2F)ccc1Br` (stereo not drawn) [compound 288]: the “β-arr Max. Resp.” value on mu opioid receptor (MOR) [1] (setting [3]) is recorded as “F (F represents a maximal response of > 60%)”. For the same compound, the concentration giving a half-maximal response (EC50) at mu opioid receptor (MOR) [1] (β-arrestin recruitment) and on mu opioid receptor (MOR) [2] (setting [4]) was over 2100 nM each time. Also, the “cAMP Max. Resp.” value at mu opioid receptor (MOR) [2] (setting [5]) is “E (E represents a maximal response of 40-60%)”.
Turning to `CC1CCN(S(=O)(=O)c2ccc(Cl)cc2)C1c1ccc(F)c(F)c1F` (mixture of isomers) [Compound 98], the “β-arr Max. Resp.” value on mu opioid receptor (MOR) [1] (setting [3]) was “E (E represents a maximal response of 40-60%)”. The EC50 at mu opioid receptor (MOR) [1] (β-arrestin recruitment) and on mu opioid receptor (MOR) [2] (setting [6]) was over 2100 nM in each case. Besides, at mu opioid receptor (MOR) [2] (setting [5]), the “cAMP Max. Resp.” value is recorded as “D (D represents a maximal response of < 40%)”.
Regarding `O=S(=O)(c1ccc(Cl)cc1)N1C2CCC(C2)C1c1ccc(F)c(Br)c1` (stereo not drawn) [Compound 179], the “β-arr Max. Resp.” value on mu opioid receptor (MOR) [1] (setting [3]) is listed as “F (F represents a maximal response of > 60%)”. Also, the concentration for a half-maximal effect (EC50) on mu opioid receptor (MOR) [1] (β-arrestin recruitment) is 700 to 2100 nM; on mu opioid receptor (MOR) [2] (setting [6]) it was under 700 nM. Besides, on mu opioid receptor (MOR) [2] (setting [5]), the “cAMP Max. Resp.” value was “D (D represents a maximal response of < 40%)”.
In the case of `Fc1ccc(C2CSCCN2c2nc(Cl)ncc2F)cc1Cl` (stereo not drawn) [Compound 460], on mu opioid receptor (MOR) [1] (setting [7]), the “β-arr Max. Resp.” value is given as “F (F represents a maximal response of > 60%)”. Further, the EC50 at mu opioid receptor (MOR) [1] (β-arrestin recruitment) and on mu opioid receptor (MOR) [2] (setting [6]) was over 2100 nM throughout. The “cAMP Max. Resp.” value at mu opioid receptor (MOR) [2] (setting [8]) is “F (F represents a maximal response of > 60%)”.
As to `Fc1ccc(C2CCCCN2Cc2cncc(Cl)c2)cc1Cl` (stereo not drawn) [compound 147], the “β-arr Max. Resp.” value at mu opioid receptor (MOR) [1] (setting [3]) is given as “F (F represents a maximal response of > 60%)”. Also, the EC50 on mu opioid receptor (MOR) [1] (β-arrestin recruitment) and at mu opioid receptor (MOR) [2] (setting [4]) was over 2100 nM in each case. In addition, the “cAMP Max. Resp.” value on mu opioid receptor (MOR) [2] (setting [5]) was “D (D represents a maximal response of < 40%)”.
As for `CC(C)(O)C(=O)N1CCN(c2nc(Cl)ncc2F)C(c2cc(F)cc(C(F)(F)F)c2)C1` (racemic) [Compound 307], the “β-arr Max. Resp.” value on mu opioid receptor (MOR) [1] (setting [3]) was “D (D represents a maximal response of < 40%)”. Further, the EC50 at mu opioid receptor (MOR) [1] (β-arrestin recruitment) and at mu opioid receptor (MOR) [2] (setting [6]) was over 2100 nM in each case. Further, the “cAMP Max. Resp.” value at mu opioid receptor (MOR) [2] (setting [5]) is “F (F represents a maximal response of > 60%)”.
As for `Fc1cnc(N2CCOCC2)nc1N1CCCCC1c1cccc(C(F)(F)F)c1` (stereo not drawn) [compound 255], at mu opioid receptor (MOR) [1] (setting [3]), the “β-arr Max. Resp.” value is reported as “D (D represents a maximal response of < 40%)”. For the same compound, the EC50 on mu opioid receptor (MOR) [1] (β-arrestin recruitment) and on mu opioid receptor (MOR) [2] (setting [4]) was over 2100 nM in each case. Further, on mu opioid receptor (MOR) [2] (setting [5]), the “cAMP Max. Resp.” value is “F (F represents a maximal response of > 60%)”.
With `Fc1cnc(Cl)nc1N1CCCCC1c1cnccc1C(F)(F)F` (stereo not drawn) [compound 332], the “β-arr Max. Resp.” value at mu opioid receptor (MOR) [1] (setting [3]) was “D (D represents a maximal response of < 40%)”. Besides, the 50% effective concentration (EC50) at mu opioid receptor (MOR) [1] (β-arrestin recruitment) and on mu opioid receptor (MOR) [2] (setting [4]) was under 700 nM in each case. For the same compound, the “cAMP Max. Resp.” value at mu opioid receptor (MOR) [2] (setting [5]) is on record as “D (D represents a maximal response of < 40%)”.
Take `Fc1cnc(Cl)nc1N1CCCCC1c1ccc(Br)c(C(F)(F)F)c1` (stereo not drawn) [compound 287]: at mu opioid receptor (MOR) [1] (setting [3]), the “β-arr Max. Resp.” value is listed as “F (F represents a maximal response of > 60%)”. Also, the half-maximal effective concentration (EC50) was 700 to 2100 nM on mu opioid receptor (MOR) [1] (β-arrestin recruitment) and under 700 nM on mu opioid receptor (MOR) [2] (setting [4]). For the same compound, on mu opioid receptor (MOR) [2] (setting [5]), the “cAMP Max. Resp.” value is “D (D represents a maximal response of < 40%)”.
For `Fc1cc(C2CCCCN2c2nc(Cl)ncc2F)cc(C(F)(F)F)c1` (single isomer, unassigned) [compound 423], at mu opioid receptor (MOR) [1] (setting [7]), the “β-arr Max. Resp.” value is given as “D (D represents a maximal response of < 40%)”. In addition, the EC50 at mu opioid receptor (MOR) [1] (β-arrestin recruitment) and on mu opioid receptor (MOR) [2] (setting [4]) was under 700 nM in each case. The “cAMP Max. Resp.” value at mu opioid receptor (MOR) [2] (setting [8]) was “D (D represents a maximal response of < 40%)”.
With `Fc1ccc(C2CC(F)(F)CCN2c2nc(Cl)ncc2F)cc1Br` (stereo not drawn) [compound 246], the “β-arr Max. Resp.” value at mu opioid receptor (MOR) [1] (setting [3]) was “F (F represents a maximal response of > 60%)”. Besides, the EC50 at mu opioid receptor (MOR) [1] (β-arrestin recruitment) and on mu opioid receptor (MOR) [2] (setting [4]) was 700 to 2100 nM throughout. For the same compound, at mu opioid receptor (MOR) [2] (setting [5]), the “cAMP Max. Resp.” value was “D (D represents a maximal response of < 40%)”.
